ChEMBL document CHEMBL1133343, “Synthesis and antifungal activity of a ferrocene-fluconazole analogue” (2000)

Experiments:
Format in all cases: functional
Candida parapsilosis = assay: Compound was tested for antifungal activity against growth of two strains Candida parapsilosis; conditions: Lodderomyces parapsilosis
Candida albicans [1] = assay: Compound was tested for antifungal activity against growth of three strains of Candida albicans
Candida albicans [2] = assay: Compound was tested for antifungal activity against growth of two strains Candida glabrata
Pichia kudriavzevii = assay: Compound was tested for antifungal activity against growth of three strains Candida krusei

Q: Which MIC80 (Candida parapsilosis) does the source give for `OC(Cn1cncn1)(Cn1cncn1)c1ccc(F)cc1F` [FLUCONAZOLE] here?
A: < 12 µg/mL

Q: And the MIC80 (Candida albicans [1])?
A: < 1.5 µg/mL

Q: What about the MIC80 (Candida albicans [2]) of the same compound?
A: > 48 µg/mL

Q: What about the MIC80 (Pichia kudriavzevii) of the same compound?
A: > 48 µg/mL
